# Paper PMC4433263, “Identification of Rv3852 as an Agrimophol-Binding Protein in Mycobacterium tuberculosis” (PLoS ONE, 2015)
# Molecular target: T1, Rv3852 (Mycobacterium tuberculosis, UniProt I6YHB0)
# T1 construct: gene hns
# Assay: ITC; supported by competitive EMSA with proU2 DNA
# Assay type: binding
# T1 sequence (I6YHB0 2-134 limits assumed): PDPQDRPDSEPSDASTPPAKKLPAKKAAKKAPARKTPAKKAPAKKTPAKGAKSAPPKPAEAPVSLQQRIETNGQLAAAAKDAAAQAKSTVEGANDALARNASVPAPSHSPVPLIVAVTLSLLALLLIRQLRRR
row,Structure (SMILES),Kd
1,CCCC(=O)c1c(O)c(CC2(C)C(=O)C(C(=O)C(C)CC)=C(O)C(C)=C2O)c(O)c(C)c1OC (centres unmarked) [agrimophol],34 µM
2,C#CCOc1c(C)c(O)c(Cc2c(O)c(C)c(O)c(C(=O)C(C)CC)c2O)c(O)c1C(=O)CCC (centres unmarked) [a1],22 µM
